# Experimental data taken from patent US9980943B2, “Methods of treating muscular dystrophy” (BOARD OF REGENTS OF THE NEVADA SYSTEM OF HIGHER EDUCATION, …, priority 2013, dated 2018).
# How the values were obtained:
# Assay type in all cases: cell-based, mouse
# [1] = tested on: α7 integrin (LacZ reporter in α7βgal+/− myoblasts); experiment: Myoblast α7+/LacZ integrin FDG assay (Burkin assay in myoblasts, 96-well); settings: α7+/LacZ myoblasts, 96-well
# [2] = tested on: α7 integrin (LacZ reporter in α7+/LacZ myotubes); experiment: Myotube α7 integrin FDG assay (Burkin assay in myotubes, 96-well); settings: myotubes
# [3] = tested on: β-galactosidase in CMV-LacZ C2C12 myotubes; experiment: CMV-LacZ secondary screen in C2C12 myotubes (β-Gal stabilizing assay); settings: for CMV-LACZ in Myotubes, signal relative to DMSO: C2C12 CMV-LacZ myotubes, fold relative to DMSO; for CMV-LACZ in Myotubes (β-galactosidase activity relative to DMSO): CMV-LacZ C2C12 myotubes, 96-well format
# Outline: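 β-gal stabilization was measured in C2C12 myoblasts or myotubes stably transfected with a CMV-driven LacZ construct, using the FDG β-gal assay. Compounds were tested in dose-response at 0.5, 1, 5, 10, 20 and 40 μM, with two replicates per point.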
Compound,"Burkin Assay in Myoblasts, signal relative to DMSO ([1]; 0.5 uM)","Burkin Assay in Myoblasts, signal relative to DMSO ([1]; 1 uM)","Burkin Assay in Myoblasts, signal relative to DMSO ([1]; 5 uM)","Burkin Assay in Myoblasts, signal relative to DMSO ([1]; 10 uM)","Burkin Assay in Myoblasts, signal relative to DMSO ([1]; 20 uM)","Burkin Assay in Myoblasts, signal relative to DMSO ([1]; 40 uM)","Burkin Assay in Myotubes, α7 integrin LacZ reporter signal relative to DMSO ([2]; 0.5 uM)","Burkin Assay in Myotubes, α7 integrin LacZ reporter signal relative to DMSO ([2]; 1 uM)","Burkin Assay in Myotubes, α7 integrin LacZ reporter signal relative to DMSO ([2]; 5 uM)","Burkin Assay in Myotubes, α7 integrin LacZ reporter signal relative to DMSO ([2]; 10 uM)","Burkin Assay in Myotubes, α7 integrin LacZ reporter signal relative to DMSO ([2]; 20 uM)","Burkin Assay in Myotubes, α7 integrin LacZ reporter signal relative to DMSO ([2]; 40 uM)","CMV-LACZ in Myotubes, signal relative to DMSO ([3]; 5 uM)","CMV-LACZ in Myotubes, signal relative to DMSO ([3]; 10 uM)","CMV-LACZ in Myotubes, signal relative to DMSO ([3]; 20 uM)","CMV-LACZ in Myotubes, signal relative to DMSO ([3]; 40 uM)","Burkin Assay in Myoblasts, value relative to DMSO ([1]; 0.5 uM)","Burkin Assay in Myoblasts, value relative to DMSO ([1]; 1 uM)","Burkin Assay in Myoblasts, value relative to DMSO ([1]; 5 uM)","Burkin Assay in Myoblasts, value relative to DMSO ([1]; 10 uM)",also measured
O=C(O)c1cc(N=Cc2c(O)c3ccccc3oc2=O)ccc1O [MLS001216260-01],1.0145,0.984,0.8531,0.8798,0.8781,0.8933,1.005,0.9893,1.16,1.06,0.9144,0.9348,0.8516,1.031,1.09,0.8367,–,–,–,–,–
CCc1c(C2(O)CCCCC2)[nH]c2ncccc12 [MLS002402866-01],–,–,–,–,–,–,–,–,–,–,–,–,0.8739,0.7966,0.832,0.7307,1.037,1.1052,0.9113,0.9376,"Burkin Assay in Myoblasts, value relative to DMSO ([1]; 20 uM): 0.8943; Burkin Assay in Myoblasts, value relative to DMSO ([1]; 40 uM): 0.7689; Burkin Assay in Myotubes (signal relative to DMSO) ([2]; 0.5 uM): 1.09; Burkin Assay in Myotubes (signal relative to DMSO) ([2]; 1 uM): 1.258; Burkin Assay in Myotubes (signal relative to DMSO) ([2]; 5 uM): 1.181; Burkin Assay in Myotubes (signal relative to DMSO) ([2]; 10 uM): 1; Burkin Assay in Myotubes (signal relative to DMSO) ([2]; 20 uM): 1.075; Burkin Assay in Myotubes (signal relative to DMSO) ([2]; 40 uM): 0.9237"
S=c1[nH]nc(Cn2cnc3ccccc32)n1-c1ccccc1 [MLS000707281-01],–,–,–,–,–,–,–,–,–,–,–,–,–,–,–,–,0.9507,0.9756,0.8935,0.8854,"Burkin Assay in Myoblasts, value relative to DMSO ([1]; 20 uM): 0.8359; Burkin Assay in Myoblasts, value relative to DMSO ([1]; 40 uM): 0.7969; Burkin Assay in Myotubes (signal relative to DMSO) ([2]; 0.5 uM): 1.011; Burkin Assay in Myotubes (signal relative to DMSO) ([2]; 1 uM): 0.6537; Burkin Assay in Myotubes (signal relative to DMSO) ([2]; 5 uM): 1.059; Burkin Assay in Myotubes (signal relative to DMSO) ([2]; 10 uM): 0.7505; Burkin Assay in Myotubes (signal relative to DMSO) ([2]; 20 uM): 1.156; Burkin Assay in Myotubes (signal relative to DMSO) ([2]; 40 uM): 1.141; CMV-LACZ in Myotubes (β-galactosidase activity relative to DMSO) ([3]; 5 uM): 0.8706; CMV-LACZ in Myotubes (β-galactosidase activity relative to DMSO) ([3]; 10 uM): 0.9255; CMV-LACZ in Myotubes (β-galactosidase activity relative to DMSO) ([3]; 20 uM): 0.9474; CMV-LACZ in Myotubes (β-galactosidase activity relative to DMSO) ([3]; 40 uM): 0.9526"
Cc1nc2c(cnn2-c2ccccc2)c(=O)n1/N=C/c1ccccc1 [MLS000860538-01],1.02,1.033,1.078,1.115,0.958,0.9783,0.985,1.102,1.319,1.412,0.9635,0.9403,1.001,0.9613,1.017,0.9667,–,–,–,–,–
